Reference: US20260176320A1, “MODULATORS OF G-PROTEIN COUPLED RECEPTORS” (priority 2018, published 2026)
Like-named read-outs stand apart in the source and are kept apart here.

Columns and labels:
GLP-1R [1] = target: T1, GLP-1R (Homo sapiens, UniProt P43220); assay: HitHunter cAMP assay (GLP-1R); type: cell-based; settings: cAMP; for Emax: read-out: (Emax) GLP-1R; for EC50: read-out: EC50 GLP-1R/nM
Outline: (§1)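 Suspension cells expressing each receptor (10,000 per well) in HBSS with 10 mM HEPES, 625 μM IBMX and 0.2% BSA were treated with a 22-point 2-fold agonist series in duplicate for 30 minutes at room temperature. cAMP was detected by antibody immunocompetition with luminescence read after overnight incubation.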

GIP-R = target: T2, GIP-R (Homo sapiens, UniProt P48546); assay: HitHunter cAMP assay (GIP-R); type: cell-based; settings: cAMP; for Emax: read-out: (Emax) GIP-R; for EC50: read-out: EC50 GIP-R/nM
T2 sequence (P48546 22-466): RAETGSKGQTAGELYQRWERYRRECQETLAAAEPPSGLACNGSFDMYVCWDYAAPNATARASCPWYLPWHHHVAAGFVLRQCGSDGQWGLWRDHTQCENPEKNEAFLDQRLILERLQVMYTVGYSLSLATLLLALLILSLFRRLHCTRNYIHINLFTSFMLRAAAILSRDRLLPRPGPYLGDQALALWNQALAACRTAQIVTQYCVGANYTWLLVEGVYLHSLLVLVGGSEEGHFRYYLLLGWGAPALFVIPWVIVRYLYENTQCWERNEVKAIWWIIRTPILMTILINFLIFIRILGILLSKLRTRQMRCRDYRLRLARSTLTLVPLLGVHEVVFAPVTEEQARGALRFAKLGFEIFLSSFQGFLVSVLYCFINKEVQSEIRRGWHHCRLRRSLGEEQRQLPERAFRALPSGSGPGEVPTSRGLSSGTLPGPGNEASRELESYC
Outline: as §1

mice = assay: Glucose tolerance test (GTT); type: in vivo, mouse; settings: 24 h GTT, s.c., dose range 2-5 nmol/kg, percent of vehicle
Experimental: Freestyle Lite glucometer and strips; compounds to be tested; sterilized glucose solution 200 mg/ml.
Compounds were diluted in PBS from the 1 mM DMSO stocks right before injection. Body weight and baseline blood glucose level for each mouse were measured. Tails were snipped using sterile scissors; blood from tails was used to measure glucose. For 0.25 h GTT, mice were fasted for 5-6 h and injected with compound subcutaneously 15 mins before glucose injection. For 4 h GTT, mice were fasted O/N for 16 h and injected with compound subcutaneously 4 h before glucose injection. For 16 h GTT, mice were injected with compound subcutaneously 16 h before glucose injection; food was removed at the same time. For 24 h GTT, mice were injected with compound subcutaneously 24 h before glucose injection; food was removed 5-6 h before glucose injection. 20% glucose in water was prepared; the solution was sterilized by 0.2 μm-filtration. An intraperitoneal injection of glucose (2 g/kg) was given to the mouse. Continued to take blood samples from the tail. Blood glucose was measured at 10, 20, 30, 40, 60, 90, and 120 minutes after glucose injection. Between each of these time points, the mouse was returned to its cage and monitored (at least 6 replicate mice were used for each time-point). The average glucose measurements were plotted as a function of time and the area under the curve (AUC) was determined.

GLP-1R [2] = target: T1, GLP-1R; assay: PathHunter β-arrestin assay; type: cell-based; settings: PathHunter β-arrestin assay; read-out: β-arrestin activity EC50
Outline: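 Cells seeded overnight, then medium replaced with medium containing 0.2% BSA; agonists added as 22-point 2-fold DMSO dilution series in duplicate and incubated 90 min at 37 °C, 5% CO2. After addition of detection solution, plates sat 3 h at room temperature in the dark; luminescence read.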

T1 sequence (P43220 24-463): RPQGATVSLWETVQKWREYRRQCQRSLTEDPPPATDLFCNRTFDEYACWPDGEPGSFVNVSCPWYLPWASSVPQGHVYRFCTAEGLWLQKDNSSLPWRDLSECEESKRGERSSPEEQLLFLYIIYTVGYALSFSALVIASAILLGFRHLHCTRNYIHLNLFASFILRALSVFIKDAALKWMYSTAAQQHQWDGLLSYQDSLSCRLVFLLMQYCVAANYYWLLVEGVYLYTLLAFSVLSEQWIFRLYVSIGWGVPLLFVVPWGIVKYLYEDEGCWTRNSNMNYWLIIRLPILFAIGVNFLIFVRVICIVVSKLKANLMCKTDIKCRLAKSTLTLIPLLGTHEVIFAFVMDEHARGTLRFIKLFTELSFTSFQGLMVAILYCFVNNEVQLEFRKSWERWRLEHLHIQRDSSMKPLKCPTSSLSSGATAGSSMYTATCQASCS

CCCCCCCCCCCCCCCC(=O)N[C@@H](CCC(=O)NCCCC[C@H](NC(=O)[C@H](CO)NC(=O)[C@@H]1CCCN1C(=O)[C@@H]1CCCN1C(=O)[C@@H]1CCCN1C(=O)[C@H](C)NC(=O)CNC(=O)[C@H](CO)NC(=O)[C@H](CO)NC(=O)[C@@H]1CCCN1C(=O)CNC(=O)CNC(=O)[C@H](C)NC(=O)[C@H](CC(C)C)NC(=O)[C@H](CC(C)C)NC(=O)[C@H](Cc1c[nH]c2ccccc12)NC(=O)[C@H](CC(N)=O)NC(=O)[C@@H](NC(=O)[C@H](Cc1ccccc1)NC(=O)[C@H](CCC(=O)O)NC(=O)C(C)(C)NC(=O)[C@H](C)NC(=O)[C@H](C)NC(=O)[C@H](CCC(N)=O)NC(=O)[C@H](CCCCN)NC(=O)[C@H](CC(=O)O)NC(=O)[C@H](CC(C)C)NC(=O)[C@H](Cc1ccc(O)cc1)NC(=O)[C@@H](NC(=O)[C@H](CO)NC(=O)[C@H](Cc1ccc(O)cc1)NC(=O)[C@H](CC(=O)O)NC(=O)[C@H](CO)NC(=O)[C@@H](NC(=O)[C@H](Cc1ccccc1)NC(=O)[C@@H](NC(=O)CNC(=O)[C@H](CCC(=O)O)NC(=O)CCCNC(=O)CN1CCCCC1=O)[C@@H](C)O)[C@@H](C)O)[C@@H](C)CC)C(C)C)C(N)=O)C(=O)O [Compound 16]
Emax (GLP-1R [1]; Table 3): 97% | EC50 (GLP-1R [1]; Table 3): < 0.1 nM | Emax (GLP-1R [1]; Table 3A): 97% | EC50 (GLP-1R [1]; Table 3A): < 0.1 nM | Emax (GIP-R; Table 3): 22% | EC50 (GIP-R; Table 3): 1 to 10 nM | Emax (GIP-R; Table 3A): 22% | EC50 (GIP-R; Table 3A): 10 to 100 nM | AUC score (mice): 2 (AUC score 2 = 26-50%) | EC50 (GLP-1R [2]): < 10 nM

CCCCCCCCCCCCCCCC(=O)N[C@@H](CCC(=O)NCCCC[C@H](NC(=O)[C@H](CO)NC(=O)[C@@H]1CCCN1C(=O)[C@@H]1CCCN1C(=O)[C@@H]1CCCN1C(=O)[C@H](C)NC(=O)CNC(=O)[C@H](CO)NC(=O)[C@H](CO)NC(=O)[C@@H]1CCCN1C(=O)CNC(=O)CNC(=O)[C@H](C)NC(=O)[C@H](CC(C)C)NC(=O)[C@H](CC(C)C)NC(=O)[C@H](Cc1c[nH]c2ccccc12)NC(=O)[C@H](CC(N)=O)NC(=O)[C@@H](NC(=O)[C@H](Cc1ccccc1)NC(=O)[C@H](CCC(=O)O)NC(=O)C(C)(C)NC(=O)[C@H](C)NC(=O)[C@H](C)NC(=O)[C@H](CCC(N)=O)NC(=O)[C@H](CCCCN)NC(=O)[C@H](CC(=O)O)NC(=O)[C@H](CC(C)C)NC(=O)[C@H](Cc1ccc(O)cc1)NC(=O)[C@@H](NC(=O)[C@H](CO)NC(=O)[C@H](Cc1ccc(O)cc1)NC(=O)[C@H](CC(=O)O)NC(=O)[C@H](CO)NC(=O)[C@@H](NC(=O)[C@H](Cc1ccccc1)NC(=O)[C@@H](NC(=O)CNC(=O)[C@H](CCC(=O)O)NC(=O)C(C)(C)CC(=O)NCCN1CCCCC1=O)[C@@H](C)O)[C@@H](C)O)[C@@H](C)CC)C(C)C)C(N)=O)C(=O)O [Compound 18]
Emax (GLP-1R [1]; Table 3): 101% | EC50 (GLP-1R [1]; Table 3): < 0.1 nM | Emax (GLP-1R [1]; Table 3A): 101% | EC50 (GLP-1R [1]; Table 3A): < 0.1 nM | Emax (GIP-R; Table 3): 80% | EC50 (GIP-R; Table 3): 0.1 to 1 nM | Emax (GIP-R; Table 3A): 80% | EC50 (GIP-R; Table 3A): 0.1 to 1 nM | AUC score (mice): 2 (AUC score 2 = 26-50%) | EC50 (GLP-1R [2]): < 10 nM

CCCCCCCCCCCCCCCC(=O)N[C@@H](CCC(=O)NCCCC[C@H](NC(=O)[C@H](CO)NC(=O)[C@@H]1CCCN1C(=O)[C@@H]1CCCN1C(=O)[C@@H]1CCCN1C(=O)[C@H](C)NC(=O)CNC(=O)[C@H](CO)NC(=O)[C@H](CO)NC(=O)[C@@H]1CCCN1C(=O)CNC(=O)CNC(=O)[C@H](C)NC(=O)[C@H](CC(C)C)NC(=O)[C@H](CC(C)C)NC(=O)[C@H](Cc1c[nH]c2ccccc12)NC(=O)[C@H](CC(N)=O)NC(=O)[C@@H](NC(=O)[C@H](Cc1ccccc1)NC(=O)[C@H](CCC(=O)O)NC(=O)C(C)(C)NC(=O)[C@H](C)NC(=O)[C@H](C)NC(=O)[C@H](CCC(N)=O)NC(=O)[C@H](CCCCN)NC(=O)[C@H](CC(=O)O)NC(=O)[C@H](CC(C)C)NC(=O)[C@H](Cc1ccc(O)cc1)NC(=O)[C@@H](NC(=O)[C@H](CO)NC(=O)[C@H](Cc1ccc(O)cc1)NC(=O)[C@H](CC(=O)O)NC(=O)[C@H](CO)NC(=O)[C@@H](NC(=O)[C@H](Cc1ccccc1)NC(=O)[C@@H](NC(=O)CNC(=O)[C@H](CCC(=O)O)NC(=O)CCNC(=O)CN1CCCCCC1=O)[C@@H](C)O)[C@@H](C)O)[C@@H](C)CC)C(C)C)C(N)=O)C(=O)O [Compound 266]
Emax (GLP-1R [1]; Table 3A): 100% | EC50 (GLP-1R [1]; Table 3A): < 0.1 nM | Emax (GIP-R; Table 3A): 70% | EC50 (GIP-R; Table 3A): 1 to 10 nM | AUC score (mice): 2 (AUC score 2 = 26-50%) | EC50 (GLP-1R [2]): < 10 nM

CCCCCCCCCCCCCCCC(=O)N[C@@H](CCC(=O)NCCCC[C@H](NC(=O)[C@H](CO)NC(=O)[C@@H]1CCCN1C(=O)[C@@H]1CCCN1C(=O)[C@@H]1CCCN1C(=O)[C@H](C)NC(=O)CNC(=O)[C@H](CO)NC(=O)[C@H](CO)NC(=O)[C@@H]1CCCN1C(=O)CNC(=O)CNC(=O)[C@H](C)NC(=O)[C@H](CC(C)C)NC(=O)[C@H](CC(C)C)NC(=O)[C@H](Cc1c[nH]c2ccccc12)NC(=O)[C@H](CC(N)=O)NC(=O)[C@@H](NC(=O)[C@H](Cc1ccccc1)NC(=O)[C@H](CCC(=O)O)NC(=O)C(C)(C)NC(=O)[C@H](C)NC(=O)[C@H](C)NC(=O)[C@H](CCC(N)=O)NC(=O)[C@H](CCCCN)NC(=O)[C@H](CC(=O)O)NC(=O)[C@H](CC(C)C)NC(=O)[C@H](Cc1ccc(O)cc1)NC(=O)[C@@H](NC(=O)[C@H](CO)NC(=O)[C@H](Cc1ccc(O)cc1)NC(=O)[C@H](CC(=O)O)NC(=O)[C@H](CO)NC(=O)[C@@H](NC(=O)[C@H](Cc1ccccc1)NC(=O)[C@@H](NC(=O)CNC(=O)[C@H](CCC(=O)O)NC(=O)CCNC(=O)Cn1ccccc1=O)[C@@H](C)O)[C@@H](C)O)[C@@H](C)CC)C(C)C)C(N)=O)C(=O)O [Compound 234]
Emax (GLP-1R [1]; Table 3A): 97% | EC50 (GLP-1R [1]; Table 3A): 0.1 to 1 nM | Emax (GIP-R; Table 3A): 76% | EC50 (GIP-R; Table 3A): 1 to 10 nM | AUC score (mice): 3 (AUC score 3 = 51-75%) | EC50 (GLP-1R [2]): > 1000 nM

CCCCCCCCCCCCCCCC(=O)N[C@@H](CCC(=O)NCCCC[C@H](NC(=O)[C@H](CO)NC(=O)[C@@H]1CCCN1C(=O)[C@@H]1CCCN1C(=O)[C@@H]1CCCN1C(=O)[C@H](C)NC(=O)CNC(=O)[C@H](CO)NC(=O)[C@H](CO)NC(=O)[C@@H]1CCCN1C(=O)CNC(=O)CNC(=O)[C@H](C)NC(=O)[C@H](CC(C)C)NC(=O)[C@H](CC(C)C)NC(=O)[C@H](Cc1c[nH]c2ccccc12)NC(=O)[C@H](CC(N)=O)NC(=O)[C@@H](NC(=O)[C@H](Cc1ccccc1)NC(=O)[C@H](CCC(=O)O)NC(=O)C(C)(C)NC(=O)[C@H](C)NC(=O)[C@H](C)NC(=O)[C@H](CCC(N)=O)NC(=O)[C@H](CCCCN)NC(=O)[C@H](CC(=O)O)NC(=O)[C@H](CC(C)C)NC(=O)[C@H](Cc1ccc(O)cc1)NC(=O)[C@@H](NC(=O)[C@H](CO)NC(=O)[C@H](Cc1ccc(O)cc1)NC(=O)[C@H](CC(=O)O)NC(=O)[C@H](CO)NC(=O)[C@@H](NC(=O)[C@H](Cc1ccccc1)NC(=O)[C@@H](NC(=O)CNC(=O)[C@H](CCC(=O)O)NC(=O)CCNC(=O)CN1CCOCC1=O)[C@@H](C)O)[C@@H](C)O)[C@@H](C)CC)C(C)C)C(N)=O)C(=O)O [Compound 233]
Emax (GLP-1R [1]; Table 3A): 96% | EC50 (GLP-1R [1]; Table 3A): < 0.1 nM | Emax (GIP-R; Table 3A): 77% | EC50 (GIP-R; Table 3A): 1 to 10 nM | AUC score (mice): 2 (AUC score 2 = 26-50%) | EC50 (GLP-1R [2]): 10 to 1000 nM
